Our source for the IC50 values is article PMC8879474, “Tissue Transglutaminase but Not Microbial Transglutaminase Is Inhibited by Exogenous Oxidative Substances in Celiac Disease” (International Journal of Molecular Sciences, 2022).

The target of the test is T1, transglutaminase 2 (TG2, tissue transglutaminase) (Homo sapiens, UniProt P21980).
T1 construct: gene TGM2
T1 sequence (P21980 2-687): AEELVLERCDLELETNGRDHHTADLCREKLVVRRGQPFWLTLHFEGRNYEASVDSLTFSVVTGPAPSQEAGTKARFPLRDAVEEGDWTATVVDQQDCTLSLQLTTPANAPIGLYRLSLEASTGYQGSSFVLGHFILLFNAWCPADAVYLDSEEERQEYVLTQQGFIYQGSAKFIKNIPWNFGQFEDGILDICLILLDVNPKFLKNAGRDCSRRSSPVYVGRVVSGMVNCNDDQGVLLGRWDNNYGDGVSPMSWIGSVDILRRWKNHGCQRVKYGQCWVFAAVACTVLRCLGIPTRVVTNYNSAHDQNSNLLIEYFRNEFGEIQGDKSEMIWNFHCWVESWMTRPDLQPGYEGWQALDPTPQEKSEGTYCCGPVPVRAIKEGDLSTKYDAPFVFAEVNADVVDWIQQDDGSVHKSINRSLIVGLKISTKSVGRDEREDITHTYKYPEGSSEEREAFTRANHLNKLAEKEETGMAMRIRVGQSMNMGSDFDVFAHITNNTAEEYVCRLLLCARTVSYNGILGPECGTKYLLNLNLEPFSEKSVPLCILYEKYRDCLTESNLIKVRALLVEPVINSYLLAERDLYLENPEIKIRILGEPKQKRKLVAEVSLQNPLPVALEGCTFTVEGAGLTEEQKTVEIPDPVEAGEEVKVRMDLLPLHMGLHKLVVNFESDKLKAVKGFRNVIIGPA
The test can be described thus: in vitro 5BP transamidation assay with immobilized TG2 ([…]), photometric. It counts as biochemical.

In the case of `N[C@@H](CSSC[C@H](N)C(=O)O)C(=O)O` [L-cystine], the IC50 – broadly, the concentration that gives 50% inhibition – came out at 140 µM. The same measure for `CCC(C)SSc1ncc[nH]1` (centres unmarked) [PX12, 1-methylpropyl 2-imidazolyl disulfide]: 0.7 µM.
